In data set [1] the target is T1, P-gp (Homo sapiens, UniProt P08183).
T1 construct: expressed in transfected cells; host or cells: MDCK-MDR1 (Madin-Darby Canine Kidney cells, gift of Prof. P. Borst, NKI-AVL)
The data set can be described thus: ATP cell depletion (ATPlite assay) in MDCK-MDR1 cells. The settings on record: Yes/No. Type of data set: cell-based. In a few lines: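 MDCK-MDR1 cells seeded at 20,000 per well and grown overnight were treated 2 h at 37 °C, 5% CO2 with compounds at 1 to 100 µM. After cell lysis and substrate addition, luminescence was measured following ten minutes of dark adaptation as the readout of cellular ATP.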

Data set [2] can be described thus: Apparent permeability (Papp) determination (BA/AB) in Caco-2 cell monolayer. Type of data set: in vitro ADME. The settings on record: human, Caco-2 monolayer. In a few lines:
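Caco-2 monolayers cultured 21 days (TEER monitored, >1000 Ω optimal); compounds added at 100 µM in HBSS to the filter well, 120 min at 37 °C, then apical and basolateral sides sampled. Papp ratio BA/AB computed; ratio >2 taken as indicating P-gp substrate.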

The target of data set [3] is T2, MRP1 (Homo sapiens, UniProt P33527).
T2 construct: expressed in transfected cells; host or cells: MDCK-MRP1 (Madin-Darby Canine Kidney cells, gift of Prof. P. Borst, NKI-AVL)
T2 sequence (P33527 whole entry): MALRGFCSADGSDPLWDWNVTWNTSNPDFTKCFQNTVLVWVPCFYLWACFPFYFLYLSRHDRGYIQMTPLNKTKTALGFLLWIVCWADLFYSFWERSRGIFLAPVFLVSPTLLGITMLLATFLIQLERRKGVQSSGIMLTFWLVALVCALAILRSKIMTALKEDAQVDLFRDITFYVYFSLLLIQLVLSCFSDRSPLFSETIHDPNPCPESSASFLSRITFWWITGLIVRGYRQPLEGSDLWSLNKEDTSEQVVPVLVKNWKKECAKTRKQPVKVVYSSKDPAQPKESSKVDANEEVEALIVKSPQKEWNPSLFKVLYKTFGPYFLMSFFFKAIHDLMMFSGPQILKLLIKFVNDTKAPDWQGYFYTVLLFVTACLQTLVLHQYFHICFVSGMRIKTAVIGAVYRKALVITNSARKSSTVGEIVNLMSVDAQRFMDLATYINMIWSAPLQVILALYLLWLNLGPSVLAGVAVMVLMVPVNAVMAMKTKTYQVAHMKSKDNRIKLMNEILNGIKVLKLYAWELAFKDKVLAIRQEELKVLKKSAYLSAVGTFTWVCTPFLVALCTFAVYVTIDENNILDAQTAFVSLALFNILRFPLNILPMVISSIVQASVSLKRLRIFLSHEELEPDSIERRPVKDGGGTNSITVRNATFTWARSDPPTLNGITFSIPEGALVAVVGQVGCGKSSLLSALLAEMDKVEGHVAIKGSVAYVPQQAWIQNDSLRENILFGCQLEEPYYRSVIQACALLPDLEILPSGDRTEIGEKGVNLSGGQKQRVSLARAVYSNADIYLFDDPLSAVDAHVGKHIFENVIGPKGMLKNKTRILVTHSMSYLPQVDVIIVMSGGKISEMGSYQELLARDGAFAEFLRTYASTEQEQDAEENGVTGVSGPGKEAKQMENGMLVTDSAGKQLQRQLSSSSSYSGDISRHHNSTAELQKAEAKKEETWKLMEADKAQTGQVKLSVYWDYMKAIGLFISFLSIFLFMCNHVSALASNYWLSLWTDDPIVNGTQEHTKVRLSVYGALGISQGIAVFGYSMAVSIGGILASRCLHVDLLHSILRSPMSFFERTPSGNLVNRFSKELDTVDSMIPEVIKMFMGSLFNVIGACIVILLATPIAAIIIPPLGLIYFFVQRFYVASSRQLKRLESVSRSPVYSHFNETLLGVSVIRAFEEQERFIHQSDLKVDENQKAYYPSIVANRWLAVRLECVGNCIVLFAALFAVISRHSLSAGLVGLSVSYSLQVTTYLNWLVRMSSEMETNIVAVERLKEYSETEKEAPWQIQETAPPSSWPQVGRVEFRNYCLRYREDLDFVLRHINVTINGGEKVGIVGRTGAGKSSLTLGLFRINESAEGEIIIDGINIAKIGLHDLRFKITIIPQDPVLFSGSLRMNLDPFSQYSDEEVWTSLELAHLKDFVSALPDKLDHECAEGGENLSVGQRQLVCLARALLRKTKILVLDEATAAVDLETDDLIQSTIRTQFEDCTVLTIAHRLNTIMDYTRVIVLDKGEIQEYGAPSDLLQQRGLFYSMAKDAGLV
In words: Inhibition of Calcein-AM efflux in MDCK-MRP1 cells. As to conditions: for EC50: Calcein-AM, NA: not active; for MRP1, percentage of the effect: at a concentration of 100 μM. Format: cell-based. The method, then: These experiments were carried out as previously described by Teodori et al. with minor modifications. Each cell line (30 000 cells per well) was seeded into black CulturePlate 96/wells plate with 100 µL medium and allowed to become confluent overnight. 100 µL of test compounds were solubilised in culture medium and added to monolayers, with final concentrations ranging from 1 nM to 100 µM. 96/Wells plate was incubated for 30 min in a humidified atmosphere 5% CO2 at 37 °C. Calcein-AM was added in 100 µL of Phosphate Buffered Saline (PBS) to yield a final concentration of 2.5 µM and plate was incubated for 30 min in a humidified atmosphere 5% CO2 at 37 °C. Each well was washed 3 times with ice cold PBS. Saline buffer was added to each well and the plate was read with Victor3 (PerkinElmer) at excitation and emission wavelengths of 485 and 535 nm, respectively. In these experimental conditions, Calcein cell accumulation in the absence and in the presence of tested compounds was evaluated and fluorescence basal level was estimated with untreated cells. In treated wells the increase of fluorescence with respect to basal level was measured. EC50 values were determined by fitting the fluorescence increase percentage versus log[dose].
The interaction potency between the designed compounds and P-gp was evaluated by measuring the transport inhibition of the pro-fluorescent probe Calcein-AM, that is a P-gp substrate, in a cell line overexpressing P-gp (MDCK-MDR1)[47]. The P-gp interacting profile was further investigated with two other assays: the Apparent Permeability (Papp) determination (BA/AB) in Caco-2 cell monolayer[48]^,[49], and the ATP cell depletion in the MDCK-MDR1 cell line[50]. Taking into account the results of the combined tests, an interacting compound can be classified as substrate or inhibitor. Papp determination measures the ratio between two fluxes: from the basolateral to apical compartments (BA, representative of passive diffusion) and from the apical to basolateral compartments (AB, representative of active transport). […] In the same manner, if (BA/AB) >2, the compound should probably be classified as a substrate. […] The selectivity of ligands 1–26 was evaluated by detecting their activity towards the other ABC transporters MRP1 and BCRP, by measuring the inhibition of the efflux of Calcein-AM (i.e., also a MRP1 substrate) in cells overexpressing MRP1 (MDCK-MRP1 cells), and the inhibition of the efflux of the fluorescent probe Hoechst 33342 (i.e. a BCRP substrate) in cells overexpressing BCRP (MDCK-BCRP cells), respectively.

Data set [4] has as its system A549/DX cells. The data set can be described thus: Co-administration assay with doxorubicin (MTT), A549/DX cells. Type of data set: cell-based, human. The settings on record: compound 10 µM + 10 µM doxorubicin. The method, then: (§1) The co-administration assay with doxorubicin was performed in MDCK-MDR1, HT29, HT29/DX, A549 and A549/DX cells at 48 h. On day 1, 10,000 cells/well were seeded into 96-well plates in a volume of 100 µL of fresh medium. On day 2, the tested drug was added alone to the cells at different concentrations (ranging from 40 nM to 10 µM). On day 3, the medium was removed and the drug at the same concentrations was added alone and in co-administration with 10 µM doxorubicin to the cells. After the established incubation time with the tested drug, MTT (0.5 mg/mL) was added to each well, and after 3 − 4 h incubation at 37 °C, the supernatant was removed. The formazan crystals were solubilised using 100 µL of DMSO/EtOH (1:1), and the absorbance values at 570 and 630 nm were determined on the microplate reader HTX Synergy (Bio-Tek Instruments).

The test system of data set [5] is HT29/DX cells. In words: Co-administration assay with doxorubicin (MTT), HT29/DX cells. Format: cell-based, human. The settings on record: compound 10 µM + 10 µM doxorubicin. The method, then: as §1
Data set [6] has as its system HT29, A549, HT29/DX and A549/DX cells. The data set can be described thus: Preliminary cytotoxicity of compounds alone in cancer cell lines. Type of data set: cell-based, human. As to conditions: all the tested concentrations, preliminary assays (data not shown). The method, then: as §1
The efficacy of the compounds was next tested in cancer cell lines with various levels of P-gp, as the human adenocarcinoma colon cells (HT29) and non-small cell lung cancer cells (A549) displaying low amount of P-gp, and their resistant counterparts HT29/DX and A549/DX, with a high amount of P-gp[53]. In preliminary assays, we verified that 3 and 8 were not cytotoxic at all the tested concentration (data not shown).

Data set [7] deals with MDCK-MDR1 cells. In words: Co-administration assay with doxorubicin (MTT), MDCK-MDR1 cells. Format: cell-based, canine. As to conditions: compound 10 µM + 10 µM doxorubicin, MDCK-MDR1. The method, then:
as §1

For data set [8], the system named is HT29 cells. The data set can be described thus: Co-administration assay with doxorubicin (MTT), HT29 cells. Type of data set: cell-based, human. The settings on record: compound 10 µM + 10 µM doxorubicin. The method, then:
as §1

In data set [9] the test system is A549 cells. The data set can be described thus: Co-administration assay with doxorubicin (MTT), A549 cells. Format: cell-based, human. As to conditions: compound 10 µM + 10 µM doxorubicin. The method, then:
as §1

Marks after values point to notes of the source that are not given here.

One may read the efflux ratio as a quotient of directional permeabilities that is used to spot active efflux. By EC50 is commonly meant the concentration at which the effect is half-maximal.

T1 sequence (P08183 whole entry): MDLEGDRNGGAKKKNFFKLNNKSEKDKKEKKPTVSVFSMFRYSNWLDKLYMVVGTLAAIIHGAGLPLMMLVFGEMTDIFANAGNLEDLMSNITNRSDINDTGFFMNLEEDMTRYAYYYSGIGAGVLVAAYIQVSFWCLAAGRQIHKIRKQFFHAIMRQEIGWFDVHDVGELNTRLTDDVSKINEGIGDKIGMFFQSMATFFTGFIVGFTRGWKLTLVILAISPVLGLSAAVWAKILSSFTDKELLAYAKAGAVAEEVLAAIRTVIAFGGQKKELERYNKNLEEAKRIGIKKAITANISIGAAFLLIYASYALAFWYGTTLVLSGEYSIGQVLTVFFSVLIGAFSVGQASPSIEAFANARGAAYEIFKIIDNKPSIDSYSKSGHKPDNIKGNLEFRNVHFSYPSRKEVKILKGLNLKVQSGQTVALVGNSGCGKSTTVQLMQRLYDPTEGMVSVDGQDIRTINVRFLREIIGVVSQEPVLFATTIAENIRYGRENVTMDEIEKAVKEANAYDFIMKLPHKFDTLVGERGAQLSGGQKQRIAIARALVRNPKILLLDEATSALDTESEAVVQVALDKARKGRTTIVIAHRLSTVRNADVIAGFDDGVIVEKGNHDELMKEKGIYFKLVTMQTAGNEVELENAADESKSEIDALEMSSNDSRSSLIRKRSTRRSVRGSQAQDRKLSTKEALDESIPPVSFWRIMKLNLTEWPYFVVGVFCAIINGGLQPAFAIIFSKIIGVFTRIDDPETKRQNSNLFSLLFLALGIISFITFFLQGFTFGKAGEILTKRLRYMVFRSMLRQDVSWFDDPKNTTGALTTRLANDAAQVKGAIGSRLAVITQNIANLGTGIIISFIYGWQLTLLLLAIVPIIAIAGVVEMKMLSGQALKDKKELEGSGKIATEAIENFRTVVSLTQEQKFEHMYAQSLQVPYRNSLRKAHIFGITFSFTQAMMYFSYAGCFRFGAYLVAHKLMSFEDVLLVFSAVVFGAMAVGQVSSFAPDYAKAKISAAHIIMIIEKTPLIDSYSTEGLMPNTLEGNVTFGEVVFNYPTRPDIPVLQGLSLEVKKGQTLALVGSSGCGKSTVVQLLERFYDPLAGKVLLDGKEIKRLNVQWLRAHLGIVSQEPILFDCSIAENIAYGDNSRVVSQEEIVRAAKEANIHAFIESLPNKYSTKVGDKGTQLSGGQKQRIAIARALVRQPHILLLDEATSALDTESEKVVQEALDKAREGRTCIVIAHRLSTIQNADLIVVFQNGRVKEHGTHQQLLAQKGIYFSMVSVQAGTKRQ

For `COc1cc2c(cc1OC)CN(CCc1ccc(OC(=O)c3c(OC)c(OC)cc4ccccc34)cc1)CC2` [Compound 21, 4–(2-(6,7-Dimethoxy-3,4-dihydroisoquinolin-2(1H)-yl)ethyl)phenyl 2,3-dimethoxy-1-naphthoate], the ATP cell depletion entry in data set [1] is “No”. Besides, the efflux ratio at 120 min, 100 µM in data set [2] turned out to be 5.4.

In the case of `COc1ccc(C(=O)Oc2ccc(CCN3CCc4cc(OC)c(OC)cc4C3)cc2)c(OC)c1` [Compound 16, 4–(2-(6,7-Dimethoxy-3,4-dihydroisoquinolin-2(1H)-yl)ethyl)phenyl 2,4-dimethoxybenzoate], the half-maximal effective concentration (EC50) in data set [3] was 87 ± 17 µM. Further, the ATP cell depletion entry in data set [1] is given as “No”. Besides, the efflux ratio at 120 min, 100 µM in [2] was 7.1.

Take `COc1cc2c(cc1OC)CN(CCc1ccc(OC(=O)c3cccc(OC)c3OC)cc1)CC2` [Compound 18, 4–(2-(6,7-Dimethoxy-3,4-dihydroisoquinolin-2(1H)-yl)ethyl)phenyl 2,3-dimethoxybenzoate]: the ATP cell depletion result in data set [1] was “No”. Besides, the efflux ratio at 120 min, 100 µM in data set [2] was 4.1.

Take `COc1ccc(C(=O)Nc2ccc(CCN3CCc4cc(OC)c(OC)cc4C3)cc2)c(OC)c1` [Compound 3, N-(4–(2-(6,7-dimethoxy-3,4-dihydroisoquinolin-2(1H)-yl)ethyl)phenyl)-2,4-dimethoxybenzamide]: the “reduction of cell viability, co-administration with doxorubicin” value worked out at 40% in data set [4], 35% in data set [5], 5% in data set [8] and 25% in data set [9]. In data set [3], the “MRP1, percentage of the effect” value was 31%^d. In [6], the “cytotoxicity, compound alone” value is “not cytotoxic”. Besides, in [1], the ATP cell depletion result is reported as “No”. Besides, the “cytotoxicity, co-administration with doxorubicin” value in data set [7] turned out to be 77%. For the same compound, in data set [2], the efflux ratio at 120 min, 100 µM amounted to 7.4.

Regarding `COc1cc2c(cc1OC)CN(CCc1ccc(NC(=O)c3ccc(OC)c(OC)c3OC)cc1)CC2` [Compound 1, N-(4–(2-(6,7-dimethoxy-3,4-dihydroisoquinolin-2(1H)-yl)ethyl)phenyl)-2,3,4-trimethoxybenzamide], in data set [1], the ATP cell depletion result was “No”. The efflux ratio at 120 min, 100 µM in [2] turned out to be 7.

`COc1cc2c(cc1OC)CN(CCc1ccc(NC(=O)c3c(OC)c(OC)cc4ccccc34)cc1)CC2` [Compound 8, N-(4–(2-(6,7-dimethoxy-3,4-dihydroisoquinolin-2(1H)-yl)ethyl)phenyl)-2,3-dimethoxy-1-naphthamide]: the “reduction of cell viability, co-administration with doxorubicin” value in [4] is reported as 49%; in data set [5], 29%; in data set [8], 10%; in [9], 25%. Besides, the “MRP1, percentage of the effect” value in [3] is listed as 47%^d. Further, the “cytotoxicity, compound alone” value in data set [6] is on record as “not cytotoxic”. Also, the ATP cell depletion result in [1] was “No”. Moreover, the “cytotoxicity, co-administration with doxorubicin” value in [7] is on record as “around 50%”. Also, the efflux ratio at 120 min, 100 µM in data set [2] turned out to be 5.5.

`COc1cc2c(cc1OC)CN(CCc1ccc(OC(=O)c3c(OC)ccc4ccccc34)cc1)CC2` [Compound 20, 4–(2-(6,7-Dimethoxy-3,4-dihydroisoquinolin-2(1H)-yl)ethyl)phenyl 2-methoxy-1-naphthoate]: in data set [1], the ATP cell depletion entry is “No”. Further, in [2], the efflux ratio at 120 min, 100 µM was found to be 4.8.

For the compound `COc1cc2c(cc1OC)CN(CCc1ccc(OC(=O)c3ccccc3OC)cc1)CC2` [Compound 15, 4–(2-(6,7-Dimethoxy-3,4-dihydroisoquinolin-2(1H)-yl)ethyl)phenyl 2-methoxybenzoate], in data set [1], the ATP cell depletion result is reported as “No”. The efflux ratio at 120 min, 100 µM in [2] stood at 5.4.

Turning to `COc1cc2c(cc1OC)CN(CCc1ccc(OC(=O)c3ccc(OC)c(OC)c3OC)cc1)CC2` [Compound 14, 4–(2-(6,7-Dimethoxy-3,4-dihydroisoquinolin-2(1H)-yl)ethyl)phenyl 2,3,4-trimethoxybenzoate], the EC50 in data set [3] was 69.7 ± 13.9 µM. Moreover, in data set [1], the ATP cell depletion entry was “No”. Moreover, the efflux ratio at 120 min, 100 µM in [2] amounted to 9.

In the case of `COc1cc2c(cc1OC)CN(CCc1ccc(OC(=O)c3cccc4ccccc34)cc1)CC2` [Compound 19, 4–(2-(6,7-Dimethoxy-3,4-dihydroisoquinolin-2(1H)-yl)ethyl)phenyl 1-naphthoate], the ATP cell depletion result in [1] is “No”. In addition, the efflux ratio at 120 min, 100 µM in data set [2] is 5.1.

Turning to `COc1cc2c(cc1OC)CN(CCc1ccc(NC(=O)c3cccc(OC)c3OC)cc1)CC2` [Compound 5, N-(4–(2-(6,7-dimethoxy-3,4-dihydroisoquinolin-2(1H)-yl)ethyl)phenyl)-2,3-dimethoxybenzamide], the ATP cell depletion entry in [1] is listed as “No”. The efflux ratio at 120 min, 100 µM in data set [2] amounted to 5.

The values above are taken from publication PMC7178819, “6,7-Dimethoxy-2-phenethyl-1,2,3,4-tetrahydroisoquinoline amides and corresponding ester isosteres as multidrug resistance reversers” (Journal of Enzyme Inhibition and Medicinal Chemistry, 2020).
